The record followed here is ChEMBL document CHEMBL4706545, “Antiproliferative effect of mitochondria-targeting allobetulin 1,2,3-triazolium salt derivatives and their mechanism of inducing apoptosis of cancer cells” (Eur J Med Chem, 2020).

Calls of active or inactive are those of the source. The rule behind the calls is not given here.

Experiment [1] concerns ECa-109 cell line. The experiment in a line: Induction of ROS-mediated apoptosis in human ECa-109 cells assessed as viable cells at 4 uM incubated for 48 hrs in presence of NAC by annexin V-PE and 7-AAD staining based flow cytometry analysis (reference value: 94 %). The class given is functional. Particulars: read-out: Activity.
In experiment [2] the test system is ECa-109 cell line. The experiment in a line: Induction of apoptosis in human ECa-109 cells assessed as late apoptotic cells incubated for 48 hrs by annexin-V-FITC and PI staining based fluorescence microscopic analysis. The conditions noted are these: dose 1-4 µM. The class given is functional, cell-based.
Experiment [3] concerns ECa-109 cell line. The experiment in a line: Induction of ROS-mediated apoptosis in human ECa-109 cells assessed as viable cells at 2 uM incubated for 48 hrs by annexin V-PE and 7-AAD staining based flow cytometry analysis (reference value: 92.7 %). Format: functional. The conditions noted are these: read-out: Activity. (A flow cytometer gives signals particle by particle.)

Experiment [4] has as its system ECa-109 cell line. The experiment can be described thus: Induction of ROS-mediated apoptosis in human ECa-109 cells assessed as late apoptotic cells at 2 uM incubated for 48 hrs by annexin V-PE and 7-AAD staining based flow cytometry analysis (reference value: 3.89 %). Format: functional.
Experiment [5] has as its system ECa-109 cell line. The experiment in a line: Induction of ROS-mediated apoptosis in human ECa-109 cells assessed as late apoptotic cells at 4 uM incubated for 48 hrs by annexin V-PE and 7-AAD staining based flow cytometry analysis (reference value: 3.89 %). Format: functional.
The subject of experiment [6] is ECa-109 cell line. The experiment in a line: Induction of ROS-mediated apoptosis in human ECa-109 cells assessed as necrotic cells at 1 uM incubated for 48 hrs in presence of NAC by annexin V-PE and 7-AAD staining based flow cytometry analysis (reference value: 1.09 %). Format: functional.
The subject of experiment [7] is ECa-109 cell line. The experiment can be described thus: Induction of ROS-mediated apoptosis in human ECa-109 cells assessed as late apoptotic cells at 2 uM incubated for 48 hrs in presence of NAC by annexin V-PE and 7-AAD staining based flow cytometry analysis (reference value: 2.98 %). Format: functional.
The test system of experiment [8] is ECa-109 cell line. The experiment in a line: Induction of cell cycle arrest in human ECa-109 cells assessed as accumulation in G2/M phase at 4 uM incubated for 48 hrs by PI staining based flow cytometry analysis (reference value: 8.39 %). Format: functional.
The test system of experiment [9] is ECa-109 cell line. The experiment in a line: Induction of apoptosis in human ECa-109 cells assessed as decrease in caspase-3 incubated for 48 hrs by Western blot analysis. The class given is functional, cell-based. The conditions noted are these: dose 1-4 µM. Background: In western blotting, separated proteins are transferred to a membrane and probed.
The subject of experiment [10] is ECa-109 cell line. The experiment can be described thus: Induction of apoptosis in human ECa-109 cells assessed as upregulation of Bax incubated for 48 hrs by Western blot analysis. The conditions noted are these: dose 1-4 µM. The class given is functional, cell-based.
The subject of experiment [11] is ECa-109 cell line. The experiment in a line: Induction of apoptosis in human ECa-109 cells assessed as concentrated chromatin at 1 to 4 uM incubated for 48 hrs by Hoechst staining based fluorescence microscopic analysis. The class given is functional, cell-based. The conditions noted are these: dose 1-4 µM.
Experiment [12] can be described thus: Selectivity index, ratio of IC50 for cytotoxicity against human HL7702 cells to IC50 for cytotoxicity against human SGC-7901 cells.
Experiment [13] deals with SGC-7901. The experiment in a line: Induction of apoptosis in human SGC-7901 cells assessed as nuclear fragmentation at 1 to 4 uM incubated for 48 hrs by Hoechst staining based fluorescence microscopic analysis. Format: functional, cell-based. The conditions noted are these: dose 1-4 µM.
Experiment [14] concerns SGC-7901. The experiment in a line: Induction of apoptosis in human SGC-7901 cells assessed as concentrated chromatin at 1 to 4 uM incubated for 48 hrs by Hoechst staining based fluorescence microscopic analysis. The class given is functional, cell-based. The conditions noted are these: dose 1-4 µM.
The test system of experiment [15] is SGC-7901. The experiment can be described thus: Induction of apoptosis in human SGC-7901 cells at 1 to 4 uM incubated for 48 hrs by AO/PI staining based fluorescence microscopic analysis. The class given is functional, cell-based. Particulars: dose 1-4 µM.
Experiment [16] deals with SGC-7901. The experiment in a line: Induction of apoptosis in human SGC-7901 cells assessed as viable cells at 1 uM incubated for 48 hrs by annexin-V-FITC and PI staining based fluorescence microscopic analysis (reference value: 93.8 %). The class given is functional. The conditions noted are these: read-out: Activity.
Experiment [17] deals with SGC-7901. The experiment can be described thus: Induction of apoptosis in human SGC-7901 cells assessed as early apoptotic cells at 1 uM incubated for 48 hrs by annexin-V-FITC and PI staining based fluorescence microscopic analysis (reference value: 1.87 %). Format: functional.
Experiment [18] has as its system SGC-7901. The experiment can be described thus: Induction of apoptosis in human SGC-7901 cells assessed as necrotic cells at 1 uM incubated for 48 hrs by annexin-V-FITC and PI staining based fluorescence microscopic analysis (reference value: 1.03 %). Format: functional.
The subject of experiment [19] is SGC-7901. The experiment can be described thus: Induction of apoptosis in human SGC-7901 cells assessed as early apoptotic cells at 2 uM incubated for 48 hrs by annexin-V-FITC and PI staining based fluorescence microscopic analysis (reference value: 1.87 %). The class given is functional.
In experiment [20] the test system is SGC-7901. The experiment can be described thus: Induction of apoptosis in human SGC-7901 cells assessed as necrotic cells at 4 uM incubated for 48 hrs by annexin-V-FITC and PI staining based fluorescence microscopic analysis (reference value: 1.03 %). The class given is functional.
Experiment [21] concerns SGC-7901. The experiment can be described thus: Induction of ROS-mediated apoptosis in human SGC-7901 cells assessed as late apoptotic cells at 1 uM incubated for 48 hrs by annexin V-PE and 7-AAD staining based flow cytometry analysis (reference value: 3.82 %). The class given is functional.
Experiment [22] relates to SGC-7901. The experiment can be described thus: Induction of ROS-mediated apoptosis in human SGC-7901 cells assessed as necrotic cells at 2 uM incubated for 48 hrs by annexin V-PE and 7-AAD staining based flow cytometry analysis (reference value: 0.733 %). The class given is functional.
Experiment [23] concerns SGC-7901. The experiment in a line: Induction of ROS-mediated apoptosis in human SGC-7901 cells assessed as early apoptotic cells at 4 uM incubated for 48 hrs by annexin V-PE and 7-AAD staining based flow cytometry analysis (reference value: 1.89 %). Format: functional.
For experiment [24], the system named is SGC-7901. The experiment in a line: Induction of ROS-mediated apoptosis in human SGC-7901 cells assessed as late apoptotic cells at 4 uM incubated for 48 hrs by annexin V-PE and 7-AAD staining based flow cytometry analysis (reference value: 3.82 %). Format: functional.
Experiment [25] has as its system SGC-7901. The experiment can be described thus: Induction of ROS-mediated apoptosis in human SGC-7901 cells assessed as necrotic cells at 2 uM incubated for 48 hrs in presence of NAC by annexin V-PE and 7-AAD staining based flow cytometry analysis (reference value: 0.623 %). The class given is functional.
The subject of experiment [26] is SGC-7901. The experiment in a line: Induction of ROS-mediated apoptosis in human SGC-7901 cells assessed as early apoptotic cells at 4 uM incubated for 48 hrs in presence of NAC by annexin V-PE and 7-AAD staining based flow cytometry analysis (reference value: 1.15 %). The class given is functional.
Experiment [27] concerns SGC-7901. The experiment can be described thus: Induction of ROS-mediated apoptosis in human SGC-7901 cells assessed as necrotic cells at 4 uM incubated for 48 hrs in presence of NAC by annexin V-PE and 7-AAD staining based flow cytometry analysis (reference value: 0.623 %). The class given is functional.
In experiment [28] the test system is SGC-7901. The experiment in a line: Induction of cell cycle arrest in human SGC-7901 cells assessed as accumulation in G0/G1 phase at 1 uM incubated for 48 hrs by PI staining based flow cytometry analysis (reference value: 57.39 %). The class given is functional.
Experiment [29] concerns SGC-7901. The experiment can be described thus: Induction of cell cycle arrest in human SGC-7901 cells assessed as accumulation in G2/M phase at 2 uM incubated for 48 hrs by PI staining based flow cytometry analysis (reference value: 11.48 %). Format: functional.
In experiment [30] the test system is SGC-7901. The experiment in a line: Induction of cell cycle arrest in human SGC-7901 cells assessed as accumulation in S phase at 4 uM incubated for 48 hrs by PI staining based flow cytometry analysis (reference value: 31.13 %). The class given is functional.
The test system of experiment [31] is SGC-7901. The experiment in a line: Induction of apoptosis in human SGC-7901 cells assessed as decrease in caspase-9 incubated for 48 hrs by Western blot analysis. The class given is functional, cell-based. The conditions noted are these: dose 1-4 µM.
The subject of experiment [32] is SGC-7901. The experiment can be described thus: Induction of apoptosis in human SGC-7901 cells assessed as downregulation of Bcl-2 incubated for 48 hrs by Western blot analysis. Format: functional, cell-based. Particulars: dose 1-4 µM.
The test system of experiment [33] is ECa-109 cell line. The experiment can be described thus: Induction of apoptosis in human ECa-109 cells assessed as decrease in PARP incubated for 48 hrs by Western blot analysis. The class given is functional, cell-based. Particulars: dose 1-4 µM.

Consider `COc1ccccc1Cn1n[n+](C)c2c1C(C)(C)[C@@H]1CC[C@]3(C)[C@H](CC[C@@H]4[C@H]5[C@H]6OC[C@@]5(CCC6(C)C)CC[C@]43C)[C@@]1(C)C2.[I-]`, for which the viability at 4 µM with ECa-109 cell line [1] worked out at 13.8%. Besides, the Activity result is “Dose-dependent effect” in the experiment on ECa-109 cell line [2]; 28.7% in the experiment with ECa-109 cell line [4]; 95% in the experiment with ECa-109 cell line [5]; 2.07% with ECa-109 cell line [6]; 18.2% in the experiment on ECa-109 cell line [7]; 22.73% in the experiment on ECa-109 cell line [8]. In addition, the Activity entry with ECa-109 cell line [9] and in the experiment with ECa-109 cell line [10] was “Dose-dependent effect” each time. For the same molecule, in the experiment with ECa-109 cell line [3], the viability at 2 µM was 55%. Besides, the result with ECa-109 cell line [11] was Active.

With `C[n+]1nn(Cc2c(F)cccc2Cl)c2c1C[C@]1(C)[C@H]3CC[C@@H]4[C@H]5[C@H]6OC[C@@]5(CCC6(C)C)CC[C@@]4(C)[C@]3(C)CC[C@H]1C2(C)C.[I-]`, the “Ratio IC50” value in [12] turned out to be 2.08. Moreover, the outcome in the experiment on SGC-7901 [13], in the experiment with SGC-7901 [14] and with SGC-7901 [15] was Active. In addition, the viability at 1 µM with SGC-7901 [16] was determined as 83%. Moreover, the Activity in the experiment on SGC-7901 [17] is recorded as 10.7%; in the experiment on SGC-7901 [18], 1.56%; in the experiment with SGC-7901 [19] it was 25.4%; with SGC-7901 [20], 0.158%; in the experiment with SGC-7901 [21], 4.97%; in the experiment on SGC-7901 [22] it was 0.956%. The Activity in the experiment on SGC-7901 [23] came to 0.199%; in the experiment on SGC-7901 [24] it was 99.6%; with SGC-7901 [25] it was 0.637%; in the experiment on SGC-7901 [26], 4.28%; with SGC-7901 [27], 2.66%; in the experiment with SGC-7901 [28] it was 80.42%. The Activity in the experiment on SGC-7901 [29] is 9.6%; in the experiment on SGC-7901 [30], 22.27%; with SGC-7901 [31], “Dose-dependent effect”; in the experiment with SGC-7901 [32], “Dose-dependent effect”; in the experiment on ECa-109 cell line [33], “Dose-dependent effect”.
